Activity calls are given as the source filed them. No rule for the calls is given here.
What follows are compounds tested on S. cerevisiae tim10-1 mutant growth, luminescence (assay: growth inhibitors of tim10-1 mutant yeast, dose response, luminescence, S. cerevisiae, uHTS hits (AID 493003);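 also: yeast growth measured after about 22 hours at 25 °C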).

Row | SMILES | IC50
1 | S=C(NN=C1C2CC3CC(C2)CC1C3)Nc1ccccc1 | 19.4 µM
2 | COc1cccc(/C=N/n2c(C3CCCCC3)n[nH]c2=S)c1O | 32.3 µM
3 | C=CCn1c(SCc2c(F)cccc2Cl)nnc1-c1ccco1 | 34.8 µM
4 | COc1ccc(Br)cc1[C@H]1[C@@H]2C=CCC[C@@]2(C)C(=O)N1Cc1ccccc1 | 12.1 µM
5 | C/C(=N\N=C1\NC(=O)C(CC(=O)Nc2ccc(C)c(Cl)c2)S1)C(C)(C)C (configuration not stated) | 47.3 µM
6 | O=c1c2ccccc2nc(/C=C/c2ccc([N+](=O)[O-])o2)n1CCCO | 4.53 µM
7 | CCOC(=O)c1c(N)sc2c(OC)c(Br)ccc12 | 30.5 µM
8 | Cn1c(/C=C/c2ccc([N+](=O)[O-])o2)nc2ccccc2c1=O | 7.3 µM
9 | CCOC(=O)c1ccc(N=c2ssnc2Cl)cc1 | 10.4 µM
10 | CC(CNC(=O)COc1ccccc1)OC(=O)Nc1ccc(Cl)c(Cl)c1 (configuration not stated) | 20.2 µM
11 | Cc1cccc(C(=O)O/N=C(/c2ccccc2)c2ccncc2)c1 | 26.1 µM
12 | O=c1c2ccccc2oc2ccc(C#CC3(O)CCCCC3)cc12 | 23.3 µM
13 | N/C(=N\OC(=O)c1ccc(F)cc1)c1ccc(Br)cc1 | 6.61 µM
14 | Cc1nc(Nc2ccc(Cl)cc2Cl)sc1C(=O)Nc1ccccc1 | > 100 µM (inactive)
15 | c1ccc(Nc2cccc(Nc3ccccc3)c2)cc1 | 11.2 µM
16 | CC1=C/C(=N\OS(=O)(=O)c2ccccc2)C=CC1=O | 0.46 µM
17 | Cc1ccccc1OCC(=O)Nc1ccc(S(=O)(=O)N2CCCC2)cc1 | 15.6 µM
18 | Cc1ccc(C)c(S(=O)(=O)ON2C(=O)c3ccccc3C2=O)c1 | 22.1 µM
19 | CC(C)n1c(-c2ccco2)csc1=Nc1cccnc1 | 43 µM
20 | CC(/C=N/Nc1nc(C)cc(C)n1)=C\c1ccc(C(C)C)cc1 | 39.1 µM
21 | COc1ccc(C(=O)O/N=C(\N)Cc2ccc(Cl)c(Cl)c2)cc1OC | 0.76 µM
22 | O=C(CN1CCN(S(=O)(=O)c2ccc3ccccc3c2)CC1)Nc1ccc2c(c1)CCC2 | 36.6 µM
23 | Cc1cccc(Oc2cc(NC(=O)c3ccccc3)cc([N+](=O)[O-])c2)c1 | 20.4 µM
24 | CCc1ccc(NC(=S)N(Cc2ccccc2)Cc2ccccn2)cc1 | 38 µM

Row | SMILES | IC50
25 | CC(C)c1nnc(NC(=O)CCS(=O)(=O)c2nc(-c3cccs3)cc(C(F)(F)F)n2)s1 | 11.9 µM
26 | CC1=C/C(=N\OS(=O)(=O)c2ccccc2)C(C)=CC1=O | 0.3 µM
27 | CCCc1ccc(-c2c(C)sc(N)c2C#N)cc1 | 19.2 µM
28 | CN(C)CCCN(C(=O)c1ccc(Cl)s1)c1nc2cc3c(cc2s1)OCO3 | 29.4 µM
29 | COc1cc2c(cc1OC)CN(c1ccc([N+](=O)[O-])cc1Cl)CC2 | 27.6 µM
30 | O=C1C2C(c3ccccc3)CC=CC2[C@H](c2ccc3ccccc3c2)N1Cc1ccccc1 (some centres not stated) | 22.9 µM
31 | CCn1nccc1C(=O)Nc1ccc(Cl)c(Cl)c1 | 24.3 µM
32 | COc1ccc(CCNC(=O)NC23CC4CC(CC(C4)C2)C3)cc1 | 51 µM
33 | O=C(Nc1ncc2c(n1)-c1ccccc1CC2)c1cccc(Cl)c1 | 52.7 µM
34 | Cc1ccccc1C(=O)NC(=S)Nc1ccccc1N1CCCC1 | 17.3 µM
35 | CCCC(=O)Nn1cnc2c(c1=O)C1(CCCC1)Cc1ccccc1-2 | 75.2 µM
36 | Cc1ccc(NC(=O)c2ccc([N+](=O)[O-])o2)c(C)c1 | 15.7 µM
37 | CC(C)(C)C1CCc2nc(NC(=O)Cc3cn4ccsc4n3)sc2C1 (configuration not stated) | 22.7 µM
38 | COc1ccc(OC)c(N=c2ssnc2Cl)c1 | 21 µM
39 | COc1cc(C(=O)Nc2ccc(Cl)c(C(F)(F)F)c2)cc(OC)c1OC | 16.8 µM
40 | CCOc1ccccc1NC(=O)/C=C/C(N)=O | 14.4 µM
41 | Cc1cccc(C(=O)O/N=C2\CCCc3ccccc32)c1 | > 100 µM (inactive)
42 | CCn1c(=S)sc2c(=O)n(-c3ccccc3)c(SC)nc21 | 68.4 µM
43 | N/C(=N\OC(=O)c1ccccc1Cl)c1cccc([N+](=O)[O-])c1 | 23 µM
44 | Cc1nn(-c2ccc(F)cc2)c(C)c1NS(=O)(=O)c1ccc(Cl)cc1 | 19.9 µM
45 | Nc1cc2c(cc1C(=O)c1ccc(Cl)cc1)OCCO2 | 38.2 µM
46 | COc1ccc(-c2[nH]ncc2N=Nc2ccccc2)cc1 | 16.7 µM
47 | CCOC(=O)c1c(-c2ccc(C)o2)csc1NC(=S)NC(=O)N(C)C | 19.5 µM
